# Source: ChEMBL document CHEMBL5230093, “The importance of indole and azaindole scaffold in the development of antitumor agents” (Eur J Med Chem, 2020)
# Legend:
# [1] = Cytotoxicity against human Triple-negative breast cancer cells; type: functional, cell-based; details: Triple-negative breast cancer cell
# [2] = test system: HepG2; assay: Potency index, ratio of doxorubicin IC50 to compound IC50 for anticancer activity against human HepG2 cells; type: functional
# [3] = test system: MCF7; assay: Potency index, ratio of doxorubicin IC50 to compound IC50 for anticancer activity against human MCF7 cells; type: functional
# [4] = test system: HCT-116; assay: Potency index, ratio of doxorubicin IC50 to compound IC50 for anticancer activity against human HCT-116 cells; type: functional
# [5] = test system: HeLa; assay: Anticancer activity against human HeLa cells by MTT assay; type: functional, cell-based; details: pooled result: one value given for 4 cell lines, strains, targets or settings
# [6] = test system: HeLa; assay: Antiproliferative activity against human HeLa cells measured after 48 hrs by MTT assay; type: functional, cell-based
# [7] = test system: HepG2; assay: Antiproliferative activity against human HepG2 cells measured after 48 hrs by MTT assay; type: functional, cell-based; details: HepG2, 48 h
# [8] = test system: MCF7; assay: Antiproliferative activity against human MCF7 cells measured after 48 hrs by MTT assay; type: functional, cell-based; details: MCF7, 48 h
# [9] = test system: A549; assay: Cytotoxicity against human A549 cells; type: functional, cell-based
# [10] = Resistance factor, ratio of IC50 for human K562/VCR cells to IC50 for K562 cells; type: functional; details: time 72 hrs
# [11] = test system: HepG2; assay: Anticancer activity against human HepG2 cells incubated for 24 hrs by SRB method; type: functional, cell-based; details: HepG2, 24 h
# [12] = test system: MCF7; assay: Anticancer activity against human MCF7 cells incubated for 24 hrs by SRB method; type: functional, cell-based; details: MCF7, 24 h
# [13] = test system: HCT-116; assay: Anticancer activity against human HCT-116 cells incubated for 24 hrs by SRB method; type: functional, cell-based; details: HCT-116, 24 h
# [14] = test system: NCI-H460; assay: Growth inhibition of human NCI-H460 cells; type: functional
# [15] = test system: PANC-1; assay: Growth inhibition of human PANC-1 cells; type: functional
# [16] = test system: BXPC-3; assay: Growth inhibition of human BXPC-3 cells; type: functional
# [17] = test system: MCF7; assay: Antiproliferative activity against human MCF7 cells; type: functional, cell-based
# [18] = biological target: Tubulin; assay: Inhibition of tubulin polymerization (unknown origin); type: protein-complex assay, Homo sapiens
# [19] = test system: HCT-15; assay: Antiproliferative activity against human HCT-15 cells; type: functional, cell-based
# [20] = Antiproliferative activity against human SUIT-2 cells; type: functional, cell-based
# [21] = Inhibition of cell migration of human SUIT-2 cells; type: functional, cell-based
# [22] = test system: MCF7; assay: Cytotoxicity against human MCF7 cells; type: functional, cell-based
# [23] = test system: MCF7; assay: Cytotoxicity against human MCF7 cells assessed as reduction in cell growth measured after 2 days by MTT assay; type: functional, cell-based; details: MCF7, 48 h
# [24] = test system: MCF7; assay: Antiproliferative activity against human MCF7 cells by SRB assay; type: functional, cell-based
# [25] = test system: HeLa; assay: Cytotoxicity against human HeLa cells; type: functional, cell-based
# [26] = test system: A549; assay: Cytotoxicity against human A549 cells assessed as reduction in cell growth; type: functional, cell-based
# [27] = test system: HCT-116; assay: Cytotoxicity against human HCT-116 cells; type: functional, cell-based
# [28] = test system: MDA-MB-231; assay: Cytotoxicity against human MDA-MB-231 cells measured after 72 hrs; type: functional, cell-based; details: MDA-MB-231, 72 h
# [29] = test system: HeLa; assay: Antiproliferative activity against human HeLa cells measured after 48 hrs by CCK-8 method; type: functional, cell-based
# [30] = test system: DU-145; assay: Antiproliferative activity against human DU-145 cells; type: functional, cell-based
# [31] = test system: THP-1; assay: Antiproliferative activity against human THP-1 cells incubated for 24 hrs by trypan blue reagent based analysis; type: functional, cell-based; details: THP-1, 24 h
# [32] = biological target: Bromodomain-containing protein 4 (Homo sapiens) (UniProt O60885); assay: Inhibition of GST tagged BRD4 (unknown origin) at 10 uM by HTRF assay relative to control
# [33] = biological target: Histone deacetylase 4 (Homo sapiens, UniProt P56524); assay: Inhibition of human recombinant HDAC4 using Boc-Lys(Ac)-AMC as substrate preincubated for 15 mins followed by substrate addition and measured after 60 mins by fluorescence based analysis
# [34] = test system: A549; assay: Antitumor activity against human A549 cells xenografted in mouse model assessed as tumor growth inhibition relative to control; type: functional; design: scale not given: the % may be the effect or the level left
# [35] = test system: HepG2; assay: Cytotoxicity against human HepG2 cells; type: functional, cell-based
# [36] = test system: Panel NCI-60 (60 carcinoma cell lines); assay: Antiproliferative activity against human Panel NCI-60 (60 carcinoma cell lines) cells; type: functional
# [37] = test system: UO-31; assay: Antiproliferative activity against human UO-31 cells; type: functional
# Chain of Histone deacetylase 4 (P56524 whole entry): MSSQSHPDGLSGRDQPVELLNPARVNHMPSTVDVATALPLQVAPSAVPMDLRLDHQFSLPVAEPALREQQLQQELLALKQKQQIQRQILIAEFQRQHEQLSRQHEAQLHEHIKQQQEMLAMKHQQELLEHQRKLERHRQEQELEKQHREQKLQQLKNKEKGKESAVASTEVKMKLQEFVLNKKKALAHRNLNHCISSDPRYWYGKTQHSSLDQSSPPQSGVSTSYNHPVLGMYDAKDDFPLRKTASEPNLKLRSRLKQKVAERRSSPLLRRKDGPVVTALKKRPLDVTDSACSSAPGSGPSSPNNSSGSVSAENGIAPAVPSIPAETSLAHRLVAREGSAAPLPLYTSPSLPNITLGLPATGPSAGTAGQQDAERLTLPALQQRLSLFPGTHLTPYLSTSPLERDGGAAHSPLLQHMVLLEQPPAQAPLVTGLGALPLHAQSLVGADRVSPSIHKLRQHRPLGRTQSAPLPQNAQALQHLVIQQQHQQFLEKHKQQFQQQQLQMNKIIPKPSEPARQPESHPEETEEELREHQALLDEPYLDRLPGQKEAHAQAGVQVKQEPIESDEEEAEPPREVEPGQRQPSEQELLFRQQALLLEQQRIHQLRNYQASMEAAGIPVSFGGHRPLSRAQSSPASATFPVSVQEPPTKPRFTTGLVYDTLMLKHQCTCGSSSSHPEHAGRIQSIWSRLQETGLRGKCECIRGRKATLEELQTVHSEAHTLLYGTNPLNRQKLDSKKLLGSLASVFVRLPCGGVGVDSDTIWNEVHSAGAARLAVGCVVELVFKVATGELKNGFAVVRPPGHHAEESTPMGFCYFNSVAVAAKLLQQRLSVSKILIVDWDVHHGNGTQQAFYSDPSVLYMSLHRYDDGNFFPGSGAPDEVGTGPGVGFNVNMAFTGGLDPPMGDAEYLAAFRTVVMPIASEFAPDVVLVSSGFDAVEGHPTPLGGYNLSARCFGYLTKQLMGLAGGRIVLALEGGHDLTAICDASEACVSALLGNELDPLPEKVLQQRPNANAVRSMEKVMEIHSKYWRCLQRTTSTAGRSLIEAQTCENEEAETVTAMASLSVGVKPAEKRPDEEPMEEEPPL
smiles,measurement,setting,value
Cc1cccc2c(C(c3ccc(O)cc3)c3c[nH]c4c(C)cccc34)c[nH]c12,IC50,[1],10 µM
N=c1nc(-c2cn(S(=O)(=O)c3ccccc3)c3ccccc23)cc(-c2cccc(O)c2)[nH]1,Ratio IC50,[2],>8
same,Ratio IC50,[3],>8
same,Ratio IC50,[4],>8
CC(C)(C)OC(=O)N1CCC2C(C1)c1cc(Br)ccc1N2S(=O)(=O)c1ccc(Cl)cc1 (configuration not stated),IC50,[5],9.42 µM
Nc1c(C(=O)c2cccc3ccccc23)[nH]c2ncccc12,IC50,[6],3.7 µM
same,IC50,[7],8 µM
same,IC50,[8],19.9 µM
CNC(=S)N/N=C/c1c(-c2ccc(OC)cc2)[nH]c2ccccc12,IC50,[9],12.5 µM
same,Ratio IC50,[10],2.27
COC(=O)c1ccc(C(=O)/C=C2\C(=O)Nc3ccc(S(=O)(=O)N4CCOCC4)cc32)cc1,IC50,[11],< 10 µM
same,IC50,[12],< 10 µM
same,IC50,[13],< 10 µM
C[C@H]1NC(=O)[C@@H](Cc2c[nH]c3ccccc23)n2c1nc1ccccc1c2=O [FUMIQUINAZOLINE G],GI50,[14],7.62 µM
same,GI50,[15],7.62 µM
same,GI50,[16],7.62 µM
O=C(c1nnc(Nc2ccccc2F)o1)c1c[nH]c2ccccc12,IC50,[17],2.42 µM
same,IC50,[18],3.89 µM
COc1ccc(CC/N=C2\NC(=O)/C(=C/c3c[nH]c4ccc(Br)cc34)S2)cc1,IC50,[19],0.92 µM
COc1ccc(OC)c(-c2cn3nc(-c4cn(C)c5ccc(Br)cc45)sc3n2)c1,IC50,[20],< 10 µM
same,IC50,[21],< 10 µM
O=C(Nc1ccc(Br)cc1)c1coc(-c2c[nH]c3cccnc23)n1,IC50,[22],0.36 µM
Nc1ccccc1Oc1cccc(C(c2c[nH]c3ccccc23)c2c[nH]c3ccccc23)c1,IC50,[23],23.6 µM
COc1cc([C@@H]2c3cc4c(cc3[C@H](OC(=O)Cc3ccc5cc[nH]c5c3)[C@H]3COC(=O)[C@H]23)OCO4)cc(OC)c1OC,Ratio IC50,[10],2.27
O=C(Nc1cc([N+](=O)[O-])cc([N+](=O)[O-])c1)c1coc(-c2c[nH]c3cccnc23)n1,IC50,[22],0.034 µM
CCOC(=O)/C(C#N)=C1/C(=O)Nc2ccc(S(=O)(=O)N3CCOCC3)cc21,IC50,[11],< 10 µM
same,IC50,[12],< 10 µM
same,IC50,[13],< 10 µM
O=C(Cc1c[nH]c2ncccc12)N/N=C/c1cn(Cc2ccc(Cl)cc2Cl)c2ccccc12,IC50,[24],22.3 µM
CS(=O)(=O)n1cc(-c2cc(-c3cccc(O)c3)[nH]c(=O)n2)c2ccccc21,Ratio IC50,[2],>8
same,Ratio IC50,[3],>8
same,Ratio IC50,[4],>8
CC(=O)Nc1cccc(C(=O)/C=C2\C(=O)Nc3ccc(S(=O)(=O)N4CCOCC4)cc32)c1,IC50,[11],< 10 µM
same,IC50,[12],< 10 µM
same,IC50,[13],< 10 µM
COc1cc(C(c2c[nH]c3ccccc23)c2c[nH]c3ccccc23)cc(Cl)c1O,IC50,[25],0.37 µM
same,IC50,[26],0.34 µM
COc1cnc2c(c1)c(-c1noc(-c3cn(C)c4ccc(Br)cc34)n1)cn2C,IC50,[27],3.55 µM
CCCCCc1cc2cc(C)cc(/N=C/c3[nH]c(C)c(CCCCC)c3C)c2[nH]1,IC50,[28],4.2 µM
COc1cc(/C=C/c2ncc([N+](=O)[O-])n2CCOC(=O)c2c[nH]c3ccccc23)cc(OC)c1OC,IC50,[29],0.015 µM
O=C(O)C1=C2C(=Nc3ccc(S(=O)(=O)N4CCOCC4)cc32)NC1=O,IC50,[11],< 10 µM
same,IC50,[12],< 10 µM
same,IC50,[13],< 10 µM
COc1cc([C@@H]2c3cc4c(cc3[C@@H](O[C@@H]3O[C@@H]5CO[C@@H](C)O[C@H]5[C@H](O)[C@H]3O)[C@H]3COC(=O)[C@H]23)OCO4)cc(OC)c1O [ETOPOSIDE],IC50,[30],9.8 µM
COc1ccc2c(c1)c(/C=N/NC(=O)Cc1c[nH]c3ncccc13)cn2Cc1ccc(F)cc1F,IC50,[24],22.3 µM
Cc1noc(C)c1-c1ccc2c(c1)c(Cc1ccc(F)cc1)cn2CCCCCCCC(=O)NO,IC50,[31],15.5 µM
same,inhibition,[32],88%
same,IC50,[33],0.005 µM
O=c1nc(-c2cn(S(=O)(=O)c3ccccc3)c3ccccc23)cc(-c2cccc(O)c2)[nH]1,Ratio IC50,[2],>8
same,Ratio IC50,[3],>8
same,Ratio IC50,[4],>8
COc1cc2cc(C(=O)N3CCC=C(Cl)C3=O)n(C)c2c(OC)c1OC,Activity,[34],54.6%
COc1ccc2c(c1)c(/C=N/NC(=O)Cc1c[nH]c3ncccc13)cn2Cc1ccc(Br)cc1,IC50,[24],22.3 µM
COc1cccc2c1C(=O)c1c(O)c3c(c(O)c1C2=O)C[C@@](O)(C(=O)CO)C[C@@H]3O[C@H]1C[C@H](N)[C@H](O)[C@H](C)O1 [DOXORUBICIN],Activity,[34],53.3%
CS(=O)(=O)n1cc(-c2cc(-c3cccc(O)c3)[nH]c(=N)n2)c2ccccc21,Ratio IC50,[2],>8
same,Ratio IC50,[3],>8
same,Ratio IC50,[4],>8
N#Cc1ccc(Cn2cc(/C=N/NC(=O)Cc3c[nH]c4ncccc34)c3cc(Br)ccc32)cc1,IC50,[24],22.3 µM
O=C(Cc1c[nH]c2ncccc12)N/N=C/c1cn(Cc2ccc(Cl)cc2Cl)c2ccc(Br)cc12,IC50,[24],22.3 µM
Cn1cc(-c2nc(-c3cn(C)c4ncc(Cl)cc34)no2)c2cc(Br)ccc21,IC50,[27],1.93 µM
Cn1cc(C2=C(C#N)C(c3ccc(Cl)cc3)c3c(nc(N)[nH]c3=O)N2)c2ccccc21 (configuration not stated),IC50,[35],3.57 µM
N#CC(C#N)=C1C(=O)Nc2ccc(S(=O)(=O)N3CCOCC3)cc21,IC50,[11],< 10 µM
same,IC50,[12],< 10 µM
same,IC50,[13],< 10 µM
CS(=O)(=O)n1cc(-c2cc(-c3cccc(O)c3)[nH]c(=S)n2)c2ccccc21,Ratio IC50,[2],>8
same,Ratio IC50,[3],>8
same,Ratio IC50,[4],>8
Nc1ccccc1Oc1cccc(C(c2c[nH]c3ccc(Cl)cc23)c2c[nH]c3ccc(Cl)cc23)c1,IC50,[23],34.8 µM
COc1ccc(OC)c(-c2cn3nc(-c4c[nH]c5ccc(Br)cc45)sc3n2)c1,GI50,[36],10.3 µM
same,GI50,[37],1.67 µM
same,IC50,[20],< 10 µM
same,IC50,[21],< 10 µM
